Experiments:
[1] = Cytotoxicity assay (MTT) in Vero cells; format: cell-based; conditions: African green monkey, Vero cells (African green monkey kidney cells), compound concentration that produces 50% of cytotoxicity
Experimental: We then investigated whether the new amidinourea derivatives 5a–k could affect HSV-1 and HSV-2 replication. We first assessed cell cytotoxicity of the compounds in African green monkey kidney cells (Vero) to rule out the possibility that antiviral activity was related to the cytotoxic effects of the drug (Table 1). Vero cells were seeded at a density of 3 × 10^4/well in a 96-well culture plate. After 24 h, the cells were treated with different dilutions of drugs, or mock-treated using the same amount of vehicle solution (DMSO). Forty-eight hours after treatment, cell viability was determined using a standard 3-(4,5-dimethylthiazol-2-yl)-2,5-diphenyltetrazolium bromide (MTT) assay. The compounds were considered non-toxic only if they maintained at least 70% cell viability after 48 h of treatment.
To determine the cytotoxicity of amidinourea derivatives, Vero cells were seeded in a 96-well culture plate and exposed to increasing concentrations of either compounds or vehicle (DMSO) the following day. After 48 h of incubation, the number of viable cells was determined using the 3-(4,5-dimethylthiazol-2-yl)-2,5-diphenyltetrazolium bromide (MTT) (Sigma-Aldrich, Milan, Italy) assay, as previously described.
(§1) Data were presented as the mean value and standard error of the mean (SEM). Data were analyzed by means of GraphPad Prism 5 software (GraphPad Software, Inc., La Jolla, CA, USA). Statistical analysis was performed using one-way ANOVA with Bonferroni’s post-test; p < 0.05 was considered statistically significant. The IC50 e CC50 values were calculated using the online tool Quest Graph™ IC50 Calculator, AAT Bioquest, Inc., Sunnyvale, CA, USA, https://www.aatbio.com/tools/ic50-calculator (accessed on 4 May 2021).

HSV-1 = assay: Virus yield reduction assay (plaque titration) HSV-1; format: cell-based, Herpes simplex virus type 1 (clinical isolate) in Vero cells; conditions: for antiviral activity against HSV-1 (in words): virus yield reduction, Vero cells, MOI 0.1, 48 h, 100 µM (50 µM for 5f and 5k); for IC50: Human alphaherpesvirus 1, HSV-1, Vero cells, MOI 0.1, 2 h pre-treatment, 48 h, plaque assay, read-out: IC50 values (compound concentration required to inhibit 50% of viral infectivity)
Experimental: (§2) Vero cells were seeded at a density of 3 × 10^5/well in a 24-well culture plate. Twenty-four hours later, the cells were pre-treated with the different drugs for 2 h at 37 °C, and then infected in duplicate with HSV-1 or HSV-2 at an MOI of 0.1, in the presence of the compounds; following virus adsorption, the viral inoculum was removed and cultures were exposed to the compounds for 48 h. The extent of HSV-1 and HSV-2 replication was then assessed by titrating the infectivity of supernatants and cell-associated viruses using a standard plaque assay in Vero cells. Plaques were microscopically counted, and the mean plaque counts for each drug concentration were expressed as plaque-forming units per milliliter (PFU/mL) (Figure 3).
(§3) The African green monkey kidney cells (Vero, ATCC CCL-81™) were cultured in Dulbecco’s Modified Eagle’s Medium, supplemented with 10% heat inactivated fetal bovine serum (FBS), 2 mM glutamine, 1 mM sodium pyruvate, 100 U/mL penicillin and 100 µg/mL streptomycin sulfate (Sigma-Aldrich, Milan, Italy). Clinical isolates of HSV-1 and HSV-2 were a generous gift from Valeria Ghisetti, Amedeo di Savoia Hospital, Turin, Italy. They were propagated and titrated by plaque assay on Vero cells, as previously described.
(§4) Vero cells were seeded in 24-well plates and pre-treated, after 24 h, with different concentrations of the amidinourea derivatives or the vehicle control (DMSO) for 2 h at 37 °C. They were then infected with HSV at MOI of 0.1 PFU/cell in the presence of the compounds. Following virus adsorption (2 h at 37 °C), the viral inoculum was removed, and the cultures were maintained in a medium that contained the corresponding molecule for 48 h. The cells and supernatants were then harvested and disrupted using three freeze (liquid nitrogen)/thaw (37 °C) cycles. The extent of virus replication was subsequently assessed by titrating the infectivity of the supernatants of the cell suspensions in Vero cells, as previously described. Plaques were microscopically counted, and the mean plaque counts for each drug concentration were expressed as PFU/mL.
as §1
(§5) Figure 3 Antiviral activity of 5a–k against HSV-1 and HSV-2. Upper panel. Virus yield reduction assay. Vero cells were treated as described in the manuscript with the indicated compounds. The extent of (A) HSV-1 and (B) HSV-2 replication was then assessed by titrating the infectivity of supernatants and cell-associated viruses using a standard plaque assay in Vero cells. Plaques were microscopically counted, and the mean plaque counts for each molecule were expressed as PFU/mL. Mean ± SEM is shown (***, p < 0.001, one-way ANOVA followed by Bonferroni’s post-tests). Lower panel. Representative light microscopy images of Vero cells infected with (A) HSV-1 or (B) HSV-2 and treated with the indicated compounds, as described for virus yield reduction assay. Original magnification: 20×.
Figure 4 (A) Vero cells were infected with HSV-1 and, where indicated, the cells were treated with increasing concentrations of the indicated compounds, before and during virus adsorption. These remained in the culture media throughout the experiment. The extent of HSV-1 replication was then assessed by titrating the infectivity of supernatants and cell-associated viruses—obtained from freeze (liquid nitrogen)/thaw (37 °C) cycles—and combined using a standard plaque assay. […]

HSV-2 = assay: Virus yield reduction assay (plaque titration) HSV-2; format: cell-based, Herpes simplex virus type 2 (clinical isolate) in Vero cells; conditions: Vero cells, MOI 0.1, 48 h, 100 µM (50 µM for 5f and 5k)
Experimental: as §2, §3, §4
as §5, with “Representative light microscopy images of Vero cells infected with (A) HSV-1 or (B) HSV-2 and treated with the indicated compounds, as described for virus yield reduction assay. Original magnification: 20×.” left out

ICP8 and gD (HSV-2) = assay: Western blot of viral gene expression in HSV-2-infected Vero cells; format: cell-based, HSV-2 in Vero cells; conditions: MOI 0.3, various times post infection, immunoblotting
Experimental: (§6) Finally, to identify the phase of HSV replication program that is affected by amidinourea derivatives, the effects of 5i compound on viral gene expression was investigated in HSV-1 and HSV-2-infected cells. To this end, the total protein cell extracts were prepared from HSV-infected Vero cells treated with 5i, or vehicle control, for various lengths of time post infection. The expression patterns of ICP27, for HSV-1, ICP8, for HSV-2, gD, for HSV-1 and HSV-2, were then examined via immunoblotting with specific antibodies and were used as a reflection of the levels of immediate-early/early (ICP27, ICP8) and late (gD) viral products, respectively. […] However, the precise mechanism exploited by amidinourea derivatives to carry out their antiviral activity against HSV still deserves to be elucidated and is beyond the goals of the present communication.
(§7) After treatment, the cells were washed with phosphate-buffered saline (PBS), and cell lysis was carried out using radioimmunoprecipitation assay (RIPA) buffer to obtain total cell lysate. […]
(§8) Figure 5 Vero cells were mock infected or infected with HSV-1 (A) or HSV-2 (B) at an MOI of 0.3. Protein levels of ICP27 (HSV-1), ICP8 (HSV-2) and gD (HSV-1/2) were assessed at different times post infection (hpi) by Western blotting (upper panels). […]

ICP27 and gD (HSV-1) = assay: Western blot of viral gene expression in HSV-1-infected Vero cells; format: cell-based, HSV-1 in Vero cells; conditions: MOI 0.3, various times post infection, immunoblotting
Experimental: as §6, §7, §8

`N=C(NC(=O)NCc1ccc(Cl)cc1)Nc1ccc(Cl)cc1` [Compound 5a] showed a CC50 at 48 h [1] of 168 µM.
`CC(NC(=O)NC(=N)Nc1ccc(Cl)cc1)c1ccccc1` (stereo not drawn) [Compound 5b] gave a CC50 at 48 h [1] of 196 µM.
`Cc1ccc(CNC(=O)NC(=N)Nc2ccc(Cl)cc2)cc1` [Compound 5c] gave a CC50 at 48 h [1] of 184 µM.
In the case of `N=C(NC(=O)N1CCOCC1)Nc1ccc(Cl)cc1` [Compound 5d], the “antiviral activity against HSV-1 (in words)” value (HSV-1) is reported as “more pronounced against HSV-1” and the CC50 at 48 h [1] is reported as 1560 µM.
`N=C(NC(=O)NCCNc1ccccc1)Nc1ccc(Cl)cc1` [Compound 5e] showed a CC50 at 48 h [1] of 142 µM.
`N=C(NC(=O)N1CCNC(c2ccccc2)C1)Nc1ccc(Cl)cc1` (stereo not drawn) [Compound 5f] showed a CC50 at 48 h [1] of 98.6 µM.
`N=C(NCc1ccccc1)NC(=O)N1CCN(c2ccccc2)CC1` [Compound 5g] showed a CC50 at 48 h [1] of 246 µM.
In the case of `N=C(NCc1ccccc1)NC(=O)N1CCN(c2ccc(F)cc2)CC1` [Compound 5h], the CC50 at 48 h [1] is reported as 389 µM.
With `N=C(NC(=O)N1CCN(c2ccccc2)CC1)Nc1ccc(Cl)cc1` [Compound 5i] the “antiviral activity against HSV-2 (in words)” value (HSV-2) was “very strong activity”, the “expression of viral proteins ICP8 and gD (HSV-2)” value (ICP8 and gD (HSV-2)) was “overall decrease of viral proteins” and the “antiviral activity against HSV-1 (in words)” value (HSV-1) was “very strong activity”. For the same compound, the “expression of viral proteins ICP27 and gD (HSV-1)” value (ICP27 and gD (HSV-1)) was “overall decrease of viral proteins” and the CC50 at 48 h [1] was 149 µM.
With `N=C(NCc1ccccc1)NC(=O)N1CCN(c2ccc(Cl)cc2)CC1` [Compound 5j] the “antiviral activity against HSV-2 (in words)” value (HSV-2) was “very strong activity”, the IC50 (HSV-1) was 72.1 µM and the “antiviral activity against HSV-1 (in words)” value (HSV-1) was “very strong activity”. For the same compound, the CC50 at 48 h [1] was 177 µM.
In the case of `N=C(NC(=O)N1CCN(C23CC4CC(CC(C4)C2)C3)CC1)Nc1ccc(Cl)cc1` [Compound 5k], the “antiviral activity against HSV-2 (in words)” value (HSV-2) is reported as “very strong activity”, the IC50 (HSV-1) is reported as 18.5 µM and the “antiviral activity against HSV-1 (in words)” value (HSV-1) is reported as “very strong activity”. It also gave a CC50 at 48 h [1] of 86.7 µM.
In the case of `N=C(N)/N=C(\N)N1CCOCC1` [moroxydine, reference compound], the “antiviral activity against HSV-2 (in words)” value (HSV-2) is reported as “does not show any antiviral activity” and the “antiviral activity against HSV-1 (in words)” value (HSV-1) is reported as “does not show any antiviral activity”.
